Data as given in ChEMBL document CHEMBL3120151, “Synthesis and in vivo evaluation of N-ethylamino-2-oxo-1,2-dihydro-quinoline-3-carboxamide for inhibition of intestinal tumorigenesis in APC(Min/+) mice” (Bioorg Med Chem Lett, 2014).
Calls of active or inactive are those of the source. No cut-off for these calls is given here.

Legend:
Mus musculus [1] = experiment: Toxicity in APCMin/+ mouse model assessed as change in body weight at 150 ppm administered with diet from week 6 to week 18 relative to control; assay type: organism-based; conditions: in vivo, po
Mus musculus [2] = experiment: Antitumor activity against intestinal polyp in APCMin/+ mouse model assessed as reduction in intestinal polyp formation with size >2 mm at 150 ppm administered with diet from week 6 to week 18 relative to control; assay type: functional
Mus musculus [3] = experiment: Antitumor activity against intestinal polyp in APCMin/+ mouse model at 150 ppm administered with diet from week 6 to week 18 relative to control; assay type: functional
Cancer cell lines = experiment: Antitumor activity against colon cancer cells in APCMin/+ mouse model assessed as inhibition of colon tumor formation at 150 ppm administered with diet from week 6 to week 18 relative to control; assay type: functional

For NCCNC(=O)c1cc2ccccc2[nH]c1=O, the Activity (Mus musculus [1]) was “Non-toxic”, the Activity (Mus musculus [2]) was “Active” and the Activity (Mus musculus [3]) was “inactive”. The Activity (Cancer cell lines) was “inactive”.
